We go through 3 compounds from patent publication US8669228B2 (Indiana University Research and Technology Corporation, priority 2007, dated 2014).

Where no end group is shown, it is not given here.

The data set can be described thus: Glucagon solubility assay (UV absorbance of supernatant after pH adjustment). Format: physicochemical. To be noted: for solubility relative to native glucagon: pH values of 5.5 and 7.0, after 60 hours at 25° C. (FIG. 3) or 24 hours at 25° C. then 24 hours at 4° C. (FIG. 4).

Consider `CSCC[C@H](NC(=O)[C@H](CC(C)C)NC(=O)[C@H](Cc1c[nH]c2ccccc12)NC(=O)[C@H](CCC(N)=O)NC(=O)[C@@H](NC(=O)[C@H](Cc1ccccc1)NC(=O)[C@H](CC(=O)O)NC(=O)[C@H](CCC(N)=O)NC(=O)[C@H](C)NC(=O)[C@H](CCCNC(=N)N)NC(=O)[C@H](CCCNC(=N)N)NC(=O)[C@H](CO)NC(=O)[C@H](CC(=O)O)NC(=O)[C@H](CC(C)C)NC(=O)[C@H](Cc1ccc(O)cc1)NC(=O)[C@H](CCCCN)NC(=O)[C@H](CO)NC(=O)[C@H](Cc1ccc(O)cc1)NC(=O)[C@H](CC(=O)O)NC(=O)[C@H](CO)NC(=O)[C@@H](NC(=O)[C@H](Cc1ccccc1)NC(=O)[C@@H](NC(=O)CNC(=O)[C@H](CCC(N)=O)NC(=O)[C@H](CO)NC(=O)[C@@H](N)Cc1c[nH]cn1)[C@@H](C)O)[C@@H](C)O)C(C)C)C(=O)N[C@@H](CC(=O)O)C(=O)N[C@@H](CCC(=O)O)C(=O)O` [D28, E29], for which the “solubility relative to native glucagon” value is recorded as “superior solubility”.

For the compound “Glucagon, Cys17PEG5K: Glucagon Cys17 (1-29) reacted with methoxy poly(ethyleneglycol) maleimide avg. M.W. 5000”, where the note is “pH 7”, the “Percent Soluble” value is listed as 94%.

Consider “HSQGTFTSDYSKYLESRRAQDFVQWLMDT [D28, E15]”, for which the “solubility relative to native glucagon” value is “superior solubility”.
